Results published in PubChem BioAssay AID1963975 (Molecular Pharmacology Branch, DTP, NCI, 2024).

Test system: 624824-186-R-J2-PDC multicell spheroids, viability
Assay: Anticancer human tumor 624824-186-R-J2-PDC patient-derived colon adenocarcinoma cell line growth inhibition [PI3K]
Details: for IC50: curve of first compound; for viability, T/C: stronger effect = lower value
How it was run: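 Multi-cell spheroids combine tumor cells with HUVEC and human MSCs, treated with targeted agents alone or with inavolisib, alpelisib, duvelisib or copanlisib. Concentrations fall in half-log steps from at or near clinical Cmax, or from 10 microM where Cmax is unknown; viability read-out.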

[1] = second compound 0.0316 µM, first compound 0.0316 µM
[2] = second compound 0.0316 µM, first compound 0.1 µM
[3] = second compound 0.0316 µM, first compound 0.316 µM
[4] = second compound 0.0316 µM, first compound 1 µM
[5] = second compound 0.0316 µM, first compound 3.16 µM
[6] = second compound 0.0316 µM, first compound 10 µM
[7] = second compound 0.1 µM, first compound 0.0316 µM
[8] = second compound 0.1 µM, first compound 0.1 µM
[9] = second compound 0.1 µM, first compound 0.316 µM
[10] = second compound 0.1 µM, first compound 1 µM
[11] = second compound 0.1 µM, first compound 3.16 µM
[12] = second compound 0.1 µM, first compound 10 µM
[13] = second compound 0.316 µM, first compound 0.0316 µM
[14] = second compound 0.316 µM, first compound 0.1 µM
[15] = second compound 0.316 µM, first compound 0.316 µM
[16] = second compound 0.316 µM, first compound 1 µM
[17] = second compound 0.316 µM, first compound 3.16 µM
[18] = second compound 0.316 µM, first compound 10 µM
[19] = second compound 1 µM, first compound 0.0316 µM
[20] = second compound 1 µM, first compound 0.1 µM
[21] = second compound 1 µM, first compound 0.316 µM
[22] = second compound 1 µM, first compound 1 µM
[23] = second compound 1 µM, first compound 3.16 µM
[24] = second compound 1 µM, first compound 10 µM
[25] = second compound 0.00316 µM, first compound 0.0316 µM
[26] = second compound 0.00316 µM, first compound 0.1 µM
[27] = second compound 0.01 µM, first compound 0.0316 µM
[28] = second compound 0.01 µM, first compound 0.1 µM
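Note: spheroids exposed to agents for 7 days before viability read.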
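Throughout, for viability, T/C: 100% = DMSO vehicle treated spheroids.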

For CNC(=O)c1ccc(N2C(=S)N(c3ccc(C#N)c(C(F)(F)F)c3)C(=O)C2(C)C)cc1F + CC(Nc1ncnc2nc[nH]c12)c1cc2cccc(Cl)c2c(=O)n1-c1ccccc1, the IC50 (second compound 0.0316 µM) was over 10 µM, the IC50 (second compound 0.1 µM) was over 10 µM and the IC50 (second compound 0.316 µM) was over 10 µM. For the same compound, the IC50 (second compound 1 µM) was over 10 µM, the IC50 (second compound 3.16 µM) was over 10 µM and the IC50 (second compound 10 µM) was over 10 µM. It also gave a viability, T/C [1] of 94.8%, a viability, T/C [2] of 95.8% and a viability, T/C [3] of 74.2%. The viability, T/C [4] was 98.4%, the viability, T/C [5] was 102% and the viability, T/C [6] was 116%. For the same compound, the viability, T/C [7] was 104%, the viability, T/C [8] was 101% and the viability, T/C [9] was 100%. The viability, T/C [10] was 95.8%, the viability, T/C [11] was 86.5% and the viability, T/C [12] was 124%. The viability, T/C [13] was 106%, the viability, T/C [14] was 114% and the viability, T/C [15] was 78.8%. For the same compound, the viability, T/C [16] was 95.4%, the viability, T/C [17] was 93.1% and the viability, T/C [18] was 101%. For the same compound, the viability, T/C [19] was 94.9%, the viability, T/C [20] was 92.2% and the viability, T/C [21] was 101%. For the same compound, the viability, T/C [22] was 84.4%, the viability, T/C [23] was 122% and the viability, T/C [24] was 117%. For the same compound, the viability, T/C (second compound 3.16 µM, first compound 0.0316 µM) was 115%, the viability, T/C (second compound 3.16 µM, first compound 0.1 µM) was 79.2% and the viability, T/C (second compound 3.16 µM, first compound 0.316 µM) was 91.1%. It also gave a viability, T/C (second compound 3.16 µM, first compound 1 µM) of 127%, a viability, T/C (second compound 3.16 µM, first compound 3.16 µM) of 83.2% and a viability, T/C (second compound 3.16 µM, first compound 10 µM) of 96.9%. For the same compound, the viability, T/C (second compound 10 µM, first compound 0.0316 µM) was 101%, the viability, T/C (second compound 10 µM, first compound 0.1 µM) was 120% and the viability, T/C (second compound 10 µM, first compound 0.316 µM) was 107%. The viability, T/C (second compound 10 µM, first compound 1 µM) was 90.7%, the viability, T/C (second compound 10 µM, first compound 3.16 µM) was 101% and the viability, T/C (second compound 10 µM, first compound 10 µM) was 117%.
With CC(=O)c1c(C)c2cnc(Nc3ccc(N4CCNCC4)cn3)nc2n(C2CCCC2)c1=O + CC(Nc1ccc2c(c1)OCCn1cc(N3C(=O)OCC3C(F)F)nc1-2)C(N)=O the IC50 (second compound 0.00316 µM) was over 0.1 µM, the IC50 (second compound 0.01 µM) was over 0.1 µM and the IC50 (second compound 0.0316 µM) was over 0.1 µM. For the same compound, the IC50 (second compound 0.1 µM) was over 0.1 µM, the IC50 (second compound 0.316 µM) was over 0.1 µM and the IC50 (second compound 1 µM) was over 0.1 µM. The viability, T/C (second compound 0.00316 µM, first compound 0.000316 µM) was 105%, the viability, T/C (second compound 0.00316 µM, first compound 0.001 µM) was 80.9% and the viability, T/C (second compound 0.00316 µM, first compound 0.00316 µM) was 108%. The viability, T/C (second compound 0.00316 µM, first compound 0.01 µM) was 96.2%, the viability, T/C [25] was 82.7% and the viability, T/C [26] was 89.9%. It also gave a viability, T/C (second compound 0.01 µM, first compound 0.000316 µM) of 114%, a viability, T/C (second compound 0.01 µM, first compound 0.001 µM) of 92.7% and a viability, T/C (second compound 0.01 µM, first compound 0.00316 µM) of 106%. It also gave a viability, T/C (second compound 0.01 µM, first compound 0.01 µM) of 101%, a viability, T/C [27] of 93.7% and a viability, T/C [28] of 91.7%. For the same compound, the viability, T/C (second compound 0.0316 µM, first compound 0.000316 µM) was 104%, the viability, T/C (second compound 0.0316 µM, first compound 0.001 µM) was 94.2% and the viability, T/C (second compound 0.0316 µM, first compound 0.00316 µM) was 113%. It also gave a viability, T/C (second compound 0.0316 µM, first compound 0.01 µM) of 85.2%, a viability, T/C [1] of 101% and a viability, T/C [2] of 102%. For the same compound, the viability, T/C (second compound 0.1 µM, first compound 0.000316 µM) was 86.7%, the viability, T/C (second compound 0.1 µM, first compound 0.001 µM) was 101% and the viability, T/C (second compound 0.1 µM, first compound 0.00316 µM) was 91.2%. The viability, T/C (second compound 0.1 µM, first compound 0.01 µM) was 75.5%, the viability, T/C [7] was 80.1% and the viability, T/C [8] was 87.7%. For the same compound, the viability, T/C (second compound 0.316 µM, first compound 0.000316 µM) was 87.7%, the viability, T/C (second compound 0.316 µM, first compound 0.001 µM) was 76.6% and the viability, T/C (second compound 0.316 µM, first compound 0.00316 µM) was 78.8%. It also gave a viability, T/C (second compound 0.316 µM, first compound 0.01 µM) of 85.8%, a viability, T/C [13] of 87% and a viability, T/C [14] of 113%. It also gave a viability, T/C (second compound 1 µM, first compound 0.000316 µM) of 90%, a viability, T/C (second compound 1 µM, first compound 0.001 µM) of 85.4% and a viability, T/C (second compound 1 µM, first compound 0.00316 µM) of 86.5%. The viability, T/C (second compound 1 µM, first compound 0.01 µM) was 87.3%, the viability, T/C [19] was 86.1% and the viability, T/C [20] was 93.1%.
With C[C@@H](NC(=O)c1ncnc(N)c1Cl)c1ncc(C(=O)Nc2cc(C(F)(F)F)c(Cl)cn2)s1 + CC(Nc1ccc2c(c1)OCCn1cc(N3C(=O)OCC3C(F)F)nc1-2)C(N)=O the IC50 (second compound 0.00316 µM) was over 10 µM, the IC50 (second compound 0.01 µM) was over 10 µM and the IC50 (second compound 0.0316 µM) was over 10 µM. It also gave an IC50 (second compound 0.1 µM) of over 10 µM, an IC50 (second compound 0.316 µM) of over 10 µM and an IC50 (second compound 1 µM) of over 10 µM. It also gave a viability, T/C [25] of 108%, a viability, T/C [26] of 107% and a viability, T/C (second compound 0.00316 µM, first compound 0.316 µM) of 73.1%. It also gave a viability, T/C (second compound 0.00316 µM, first compound 1 µM) of 59.5%, a viability, T/C (second compound 0.00316 µM, first compound 3.16 µM) of 78% and a viability, T/C (second compound 0.00316 µM, first compound 10 µM) of 77.9%. The viability, T/C [27] was 110%, the viability, T/C [28] was 86.4% and the viability, T/C (second compound 0.01 µM, first compound 0.316 µM) was 80.7%. It also gave a viability, T/C (second compound 0.01 µM, first compound 1 µM) of 72.8%, a viability, T/C (second compound 0.01 µM, first compound 3.16 µM) of 78.8% and a viability, T/C (second compound 0.01 µM, first compound 10 µM) of 77.2%. The viability, T/C [1] was 92.6%, the viability, T/C [2] was 90.5% and the viability, T/C [3] was 83%. It also gave a viability, T/C [4] of 63.5%, a viability, T/C [5] of 73.4% and a viability, T/C [6] of 78.2%. For the same compound, the viability, T/C [7] was 115%, the viability, T/C [8] was 99.2% and the viability, T/C [9] was 65.7%. For the same compound, the viability, T/C [10] was 69.4%, the viability, T/C [11] was 77.6% and the viability, T/C [12] was 68.7%. The viability, T/C [13] was 98%, the viability, T/C [14] was 77% and the viability, T/C [15] was 68.7%. The viability, T/C [16] was 68.5%, the viability, T/C [17] was 67.2% and the viability, T/C [18] was 56.6%. The viability, T/C [19] was 77%, the viability, T/C [20] was 93.7% and the viability, T/C [21] was 68.4%. For the same compound, the viability, T/C [22] was 63.2%, the viability, T/C [23] was 55.4% and the viability, T/C [24] was 53.1%.
